{
  "source": "patent EP4529915A1",
  "about": "“LIPOSOMAL PREPARATIONS FOR USE IN TREATING CANCER” (DG-Nika AG, priority 2023, dated 2025)",
  "key": {"[1]": {"conditions": "in water, no additives used; cited from earlier work"}, "[2]": {"assay": "Dissolution of lomustine in aqueous cyclodextrin solution (solubility)", "assay_type": "physicochemical", "from_the_text": "However, they made an unexpected discovery that a methyl-β-CD (methyl-β-cyclodextrin) solution was able to dissolve lomustine crystals to the aqueous phase within a few seconds. They determined that the mechanism of this process is mostly related to co-dissolution rather than the formation of an inclusion complex as is often the case. In this respect, the formation of an inclusion complex usually takes from a few to several hours and requires constant mixing, heating and the use of a co-solvent such as ethanol or methanol.\nThe present invention provides a method of preparing a liposomal form of lomustine by (i) producing its aqueous solution of high concentration and (ii) then encapsulating it in the aqueous space of liposomes. Thanks to the use of selected cyclodextrins it is possible to obtain a high concentration of lomustine in water of ~20 mg / ml. The normal concentration of lomustine is not more than 0.11 mg/ml when no additives are used. This method makes it possible to encapsulate lomustine in the water space of liposomes in the form of its solution in water or/and inclusion complex with cyclodextrins, or to obtain the effect of co-dissolving lomustine and cyclodextrin in an aqueous solution. The main advantage of this solution is to limit the crystallization and escape of the drug from the liposomes by transferring it to an aqueous solution using not organic solvents such as ethanol, but various organic substances that can be administered intravenously without harming the patient and not damaging the liposomes as is the case with high concentrations of ethanol needed to obtain a high concentration of lomustine in water.\nFor this reason, they were looking for a way to effectively encapsulate the drug in the aqueous space of liposomes as a real solution. While searching for substances that could potentially enable the transfer of lomustine from its crystals to the aqueous phase, inventors unexpectedly discovered that a methyl-β-CD solution dissolved lomustine within a few seconds. […]"}, "[3]": {"conditions": "cited from earlier work"}},
  "note": "Read-outs that look alike come from different tables or passages of the source.",
  "data": [
    {"smiles": "O=NN(CCCl)C(=O)NC1CCCCC1", "note": "[lomustine]", "values": [
      {"measurement": "normal concentration of lomustine", "setting": "[1]", "value": "not more than 0.11 mg/ml"},
      {"measurement": "concentration of lomustine in solution", "setting": "[2]; 25% methyl-β-CD solution, room temperature (R.T.)", "value": "at least 20 mg/ml"},
      {"measurement": "time for dissolution of lomustine crystals to the aqueous phase", "setting": "[2]; methyl-β-CD solution, room temperature", "value": "a few seconds"},
      {"measurement": "concentration of lomustine in water", "setting": "[2]; with selected cyclodextrins", "value": "~ 20 mg / ml"},
      {"measurement": "metabolites remaining in the body", "setting": "[3]; 5 days after administration", "value": "15-20%"},
      {"measurement": "time until active metabolites appear in substantial concentrations in CSF", "setting": "[3]; after oral administration", "value": "≤ 30", "unit": "min"},
      {"measurement": "concentration of metabolites in the cerebrospinal fluid relative to plasma", "setting": "[3]; in vivo", "value": 150, "unit": "%"},
      {"measurement": "cyclohexyl moiety of lomustine bound to plasma proteins", "setting": "[3]; in vivo", "value": "About 600"},
      {"measurement": "second phase plasma half-life", "setting": "[3]; in vivo", "value": "24 to 48", "unit": "h"},
      {"measurement": "detection of lomustine in cerebral spinal fluid (CSF)", "setting": "[3]; oral, parent drug", "value": "not detectable"},
      {"measurement": "bioavailability", "setting": "[3]; orally administered", "value": "very low"},
      {"measurement": "biotransformation half-life", "setting": "[3]; throughout the body", "value": "less than 1 hour"},
      {"measurement": "dose of the drug excreted as metabolites in the urine", "setting": "[3]; within 24 hours", "value": "about half"},
      {"measurement": "dose of the drug excreted as metabolites in the urine", "setting": "[3]; within 4 days", "value": "less than 75%"}
    ]}
  ]
}
